Legend:
[1] = Purity test after β or γ irradiation (degradation of the pharmaceutical substance); format: physicochemical; settings: powder
Experimental: A test of microbial count was then carried out on the irradiated suspensions to determine if a satisfactory sterility was achieved. A purity test was also carried out to determine if any degradation of the pharmaceutical substance budesonide was provoked by the irradiation treatment. As a comparison, a test of microbial count and purity was carrier out also on a sample of micronized budesonide powder. A test of microbial count was then carried out on the irradiated suspensions to determine if a satisfactory sterility was achieved. A purity test was also carried out to determine if any degradation of the pharmaceutical substance BDP was provoked by the irradiation treatment. As a comparison, a test of microbial count and purity was carrier out also on a sample of micronized BDP powder.

[2] = Particle size distribution of the micronized powder; format: physicochemical
Experimental: Micronized Beclomethasone Dipropionate (BDP) powder was added slowly under stirring the solution so obtained. The micronized powder had the following particle size distribution: d(0.1) 0.44 µm, d(0.5) 1.13 µm e d(0.9) 2.42 µm.
Micronized Budesonide powder was added slowly under stirring the solution so obtained. The micronized powder had the following particle size distribution: d(0.1) 0.50 µm, d(0.5) 1.39µm; d(0.9) 3.15 µm.
180 mg of BDP micronized powder were added to the solution so prepared. PSD of the powder was: d(0.1) 0.44 µm, d(0.5) 1.13 µm e d(0.9) 2.42 µm, namely the same PSD of the BDP powder used to prepare the concentrated suspensions of examples 1 - 4.

CCC(=O)OCC(=O)[C@@]1(OC(=O)CC)[C@@H](C)C[C@H]2[C@@H]3CCC4=CC(=O)C=C[C@]4(C)[C@@]3(Cl)[C@@H](O)C[C@@]21C [BDP Powder, Beclomethasone Dipropionate]
Purity ([1]; BETA IRRADIATION 0 KGy): 99.73% | Purity ([1]; BETA IRRADIATION 2 KGy): 99.73% | Purity ([1]; BETA IRRADIATION 4 KGy): 99.66% | Purity ([1]; BETA IRRADIATION 6 KGy): 99.67% | Purity ([1]; BETA IRRADIATION 8 KGy): 99.51% | Purity ([1]; BETA IRRADIATION 10 KGy): 99.49% | Purity ([1]; GAMMA IRRADIATION 0 KGy): 99.73% | Purity ([1]; GAMMA IRRADIATION 2 KGy): 99.73% | Purity ([1]; GAMMA IRRADIATION 4 KGy): 99.68% | Purity ([1]; GAMMA IRRADIATION 6 KGy): 99.70% | Purity ([1]; GAMMA IRRADIATION 8 KGy): 99.07% | particle size distribution d(0.1) [2]: 0.44 µm | particle size distribution d(0.5) [2]: 1.13 µm | particle size distribution d(0.9) [2]: 2.42 µm

From patent EP1683514B1, “Process for the preparation of concentrated suspensions of drugs and kit thereof” (Eratech S.r.l., priority 2005, dated 2006)
